{"source": "the NIST ThermoML archive (doi:10.1016/j.tca.2015.09.001)", "experiment": "molar heat capacity at constant pressure", "settings": "101.33 kPa, Crystal, Small sample (50 mg) DSC", "note": "Numbers after ± are expanded uncertainties.", "data": [{"smiles": "c12c3c4c5c1c1c6c7c2c2c8c3c3c9c4c4c%10c5c5c1c1c6c6c%11c7c2c2c7c8c3c3c8c9c4c4c9c%10c5c5c1c1c6c6c%11c2c2c7c3c3c8c4c4c9c5c1c1c6c2c3c41", "note": "[buckminsterfullerene]", "values": [{"measurement": "molar heat capacity at constant pressure", "setting": "298.15 K", "result": "535.8 ± 24", "unit": "J/K/mol"}, {"measurement": "molar heat capacity at constant pressure", "setting": "300 K", "result": "538.6 ± 24", "unit": "J/K/mol"}, {"measurement": "molar heat capacity at constant pressure", "setting": "350 K", "result": "648.1 ± 29", "unit": "J/K/mol"}, {"measurement": "molar heat capacity at constant pressure", "setting": "400 K", "result": "742 ± 33", "unit": "J/K/mol"}, {"measurement": "molar heat capacity at constant pressure", "setting": "450 K", "result": "830.1 ± 37", "unit": "J/K/mol"}, {"measurement": "molar heat capacity at constant pressure", "setting": "500 K", "result": "917.4 ± 41", "unit": "J/K/mol"}]}]}
